In patent US20190216886A1, “Topical Compositions And Methods For Treating Wounds” (priority 2014, published 2019):

How the values were obtained:
tinea pedis infection = assay: treatment of a patient with chronic tinea pedis; type: in vivo, human; conditions: person, oral, after a month's treatment
Experimental: Twenty patients with a variety of chronic wound conditions that included diabetic foot ulcers, decubitus pressure ulcers, surgical wounds, toe fungus were treated for eight weeks by wound care physicians with a compounded topical pharmaceutical composition made from compendial ingredients.
Specifically, the test pharmaceutical composition for these studies was prepared by compounding: 25 parts 1% silver sulfadiazine cream: 25 parts 20% zinc oxide ointment; 15 parts triple antibiotic ointment; 25 parts 2% lidocaine viscous; 5 parts Vitamin E Oil (as 200 IU/gm final); and 5 parts Coenzyme Q10 (as 15 mg/gm final).
A case of tinea pedis was also reported in one of the patients. A person who had been suffering from chronic tinea pedis infection (athlete's foot) for over 10 months had tried numerous over-the-counter remedies with no success. They were prescribed the oral antibiotic terbinafine. […] The terbinafine was discontinued and the patient was placed on the test pharmaceutical formulation of the invention on Apr. 14, 2014. They returned for a follow-up with their physician about one week later on Apr. 22, 2014. […] The patient returned for a second follow up on Apr. 29, 2014 (FIG. 5B). The physician's report about 2 weeks after beginning treatment states: “Patient reports foot no longer itchy. Skin healing. […] Foot dry, healthy new tissue visualized”. […]

C. albicans = assay: in vitro zone inhibition (disk diffusion) study; type: cell-based, Candida albicans; conditions: for Mean inhibition diameter: C. albicans (n = 6), 6 mm paper disks on Mueller Hinton Agar; for antimicrobial activity, in words: C. albicans (fungi), zone inhibition
Experimental: (§1) In vitro culture and sensitivity studies were performed on common microbes seen in acute and stubborn chronic wound cases. The particular microbes tested included streptococcus pyogenes, staphylococcus aureus, methicillin resistant staphylococcus aureus (MRSA) and, a fungus, candida albicans. Ten different strains of MRSA bacteria obtained from infected hospital patients were tested.
(§2) The different microbes were inoculated on Mueller Hinton Agar media in culture plates. […] However, genetically mutated resistant strains of staphylococcus have evolved and are now the cause of numerous infections because of their resistant nature to most antibiotics.

S. pyogenes = assay: in vitro zone inhibition (disk diffusion) study; type: cell-based, Streptococcus pyogenes; conditions: for Mean inhibition diameter: S. pyogenes (n = 6), 6 mm paper disks on Mueller Hinton Agar; for antimicrobial activity, in words: S. pyogenes, zone inhibition
Experimental: as §1, §2

S. aureus = assay: in vitro zone inhibition (disk diffusion) study; type: cell-based, Staphylococcus aureus; conditions: for Mean inhibition diameter: S. aureus (n = 6), 6 mm paper disks on Mueller Hinton Agar; for antimicrobial activity, in words: non-resistant S. aureus, zone inhibition
Experimental: as §1, §2

MRSA = assay: in vitro zone inhibition (disk diffusion) study; type: cell-based, methicillin resistant staphylococcus aureus; conditions: for Mean inhibition diameter: MRSA (10 strains, n = 30), 6 mm paper disks on Mueller Hinton Agar; for zone of inhibition, visual result: MRSA strain number 11, FIG. 7; for antimicrobial activity, in words: MRSA, zone inhibition
Experimental: as §1, §2

| Compound | tinea pedis infection outcome (tinea pedis infection) | Mean inhibition diameter (C. albicans) [mm] | Mean inhibition diameter (S. pyogenes) [mm] | antimicrobial activity, in words (S. pyogenes) | Mean inhibition diameter (S. aureus) [mm] | antimicrobial activity, in words (S. aureus) | Mean inhibition diameter (MRSA) [mm] | zone of inhibition, visual result (MRSA) | antimicrobial activity, in words (C. albicans) | antimicrobial activity, in words (MRSA) |
| --- | --- | --- | --- | --- | --- | --- | --- | --- | --- | --- |
| CN(C/C=C/C#CC(C)(C)C)Cc1cccc2ccccc12 [terbinafine] | no sign of reduction in the infection | – | – | – | – | – | – | – | – | – |
| Cc1onc(-c2ccccc2)c1C(=O)N[C@@H]1C(=O)N2[C@@H]1SC(C)(C)[C@@H]2C(=O)O [Oxacillin, oxacillin] | – | 0.0 | 30.2 | showed antimicrobial activity | 20.3 | showed antimicrobial activity | 0.0 | lack of any zone inhibition | – | – |
| CN[C@H](CC(C)C)C(=O)N[C@H]1C(=O)N[C@@H](CC(N)=O)C(=O)N[C@H]2C(=O)N[C@H]3C(=O)N[C@H](C(=O)N[C@H](C(=O)O)c4cc(O)cc(O)c4-c4cc3ccc4O)[C@H](O)c3ccc(c(Cl)c3)Oc3cc2cc(c3O[C@@H]2O[C@H](CO)[C@@H](O)[C@H](O)[C@H]2O[C@H]2C[C@](C)(N)[C@H](O)[C@H](C)O2)Oc2ccc(cc2Cl)[C@H]1O [Vancomycin, vancomycin] | – | 0.0 | 22.2 | potent activity | 17.3 | potent activity | 18.9 | clear circular area of inhibition zone | not effective | potent activity |
| COc1cccc(OC)c1C(=O)N[C@@H]1C(=O)N2[C@@H]1SC(C)(C)[C@@H]2C(=O)O [methicillin] | – | – | – | – | – | – | – | – | no activity | no activity |
